Laboratory results taken from paper PMC6199744, “Development of Chemical Proteomics for the Folateome and Analysis of the Kinetoplastid Folateome” (ACS Infectious Diseases, 2018).
Where two headings read alike, the source gives them in different places.

Tests used:
Type in all cases: binding
[1] = molecular target: T1, HeLa cell extract proteins (Homo sapiens, UniProt Q96AE4)
T1 construct: endogenous in cells; host or cells: HeLa cell extract
T1 sequence (Q96AE4 1-644): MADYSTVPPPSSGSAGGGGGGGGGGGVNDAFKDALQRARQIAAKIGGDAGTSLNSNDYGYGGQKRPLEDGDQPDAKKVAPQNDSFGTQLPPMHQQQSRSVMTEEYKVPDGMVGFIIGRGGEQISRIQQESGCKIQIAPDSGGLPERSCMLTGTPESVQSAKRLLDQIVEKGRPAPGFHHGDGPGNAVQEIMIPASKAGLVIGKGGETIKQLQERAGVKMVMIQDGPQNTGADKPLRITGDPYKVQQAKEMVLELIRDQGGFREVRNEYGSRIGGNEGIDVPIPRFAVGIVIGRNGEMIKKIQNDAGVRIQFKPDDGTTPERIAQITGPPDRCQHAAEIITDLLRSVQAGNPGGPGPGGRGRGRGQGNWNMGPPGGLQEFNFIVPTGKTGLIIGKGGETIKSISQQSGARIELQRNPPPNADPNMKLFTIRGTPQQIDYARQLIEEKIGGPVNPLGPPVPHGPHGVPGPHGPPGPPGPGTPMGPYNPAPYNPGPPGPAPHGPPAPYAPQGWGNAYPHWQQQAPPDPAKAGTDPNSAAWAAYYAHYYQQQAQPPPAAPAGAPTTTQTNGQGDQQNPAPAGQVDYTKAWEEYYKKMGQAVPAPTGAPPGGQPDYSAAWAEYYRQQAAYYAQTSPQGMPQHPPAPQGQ

[2] = molecular target: T2, HeLa cell extract proteins (Homo sapiens, UniProt Q13347)
T2 construct: endogenous in cells; host or cells: HeLa cell extract
T2 sequence (Q13347 whole entry): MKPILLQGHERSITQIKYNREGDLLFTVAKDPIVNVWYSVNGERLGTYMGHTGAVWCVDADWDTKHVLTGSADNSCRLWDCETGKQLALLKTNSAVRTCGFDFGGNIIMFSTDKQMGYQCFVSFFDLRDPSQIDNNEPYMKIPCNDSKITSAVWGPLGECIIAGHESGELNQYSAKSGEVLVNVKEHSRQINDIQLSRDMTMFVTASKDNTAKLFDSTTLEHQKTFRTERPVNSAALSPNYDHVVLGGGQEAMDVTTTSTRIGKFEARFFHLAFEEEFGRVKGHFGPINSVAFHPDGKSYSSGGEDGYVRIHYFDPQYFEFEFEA

[3] = molecular target: T3, HeLa cell extract proteins (Homo sapiens, UniProt P14868)
T3 construct: endogenous in cells; host or cells: HeLa cell extract
T3 sequence (P14868 1-501): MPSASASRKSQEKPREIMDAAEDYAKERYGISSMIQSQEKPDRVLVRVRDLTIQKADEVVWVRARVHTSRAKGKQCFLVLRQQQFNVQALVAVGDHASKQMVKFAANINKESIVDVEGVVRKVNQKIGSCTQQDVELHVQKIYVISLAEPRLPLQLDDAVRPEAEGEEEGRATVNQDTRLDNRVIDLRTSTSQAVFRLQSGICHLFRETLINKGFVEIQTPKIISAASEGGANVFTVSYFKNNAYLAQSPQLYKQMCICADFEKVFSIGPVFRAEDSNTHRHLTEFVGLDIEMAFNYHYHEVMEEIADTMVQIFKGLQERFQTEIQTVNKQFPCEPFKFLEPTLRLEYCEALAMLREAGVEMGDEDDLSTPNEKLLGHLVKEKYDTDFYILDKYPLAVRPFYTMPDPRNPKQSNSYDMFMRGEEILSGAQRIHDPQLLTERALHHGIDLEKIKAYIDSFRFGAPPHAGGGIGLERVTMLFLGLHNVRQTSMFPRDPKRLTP

[4] = molecular target: T4, HeLa cell extract proteins (Homo sapiens, UniProt O95456)
T4 construct: endogenous in cells; host or cells: HeLa cell extract
T4 sequence (O95456 1-288): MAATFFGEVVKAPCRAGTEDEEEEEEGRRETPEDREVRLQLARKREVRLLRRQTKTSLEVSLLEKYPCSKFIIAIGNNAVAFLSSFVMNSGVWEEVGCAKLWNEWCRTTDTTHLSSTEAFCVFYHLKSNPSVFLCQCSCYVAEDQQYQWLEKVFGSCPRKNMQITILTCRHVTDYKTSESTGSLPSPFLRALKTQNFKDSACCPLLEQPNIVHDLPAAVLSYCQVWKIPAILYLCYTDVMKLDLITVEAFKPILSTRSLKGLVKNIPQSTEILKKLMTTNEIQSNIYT

[5] = molecular target: T5, HeLa cell extract proteins (Homo sapiens, UniProt P02786)
T5 construct: endogenous in cells; host or cells: HeLa cell extract
T5 sequence (P02786 whole entry): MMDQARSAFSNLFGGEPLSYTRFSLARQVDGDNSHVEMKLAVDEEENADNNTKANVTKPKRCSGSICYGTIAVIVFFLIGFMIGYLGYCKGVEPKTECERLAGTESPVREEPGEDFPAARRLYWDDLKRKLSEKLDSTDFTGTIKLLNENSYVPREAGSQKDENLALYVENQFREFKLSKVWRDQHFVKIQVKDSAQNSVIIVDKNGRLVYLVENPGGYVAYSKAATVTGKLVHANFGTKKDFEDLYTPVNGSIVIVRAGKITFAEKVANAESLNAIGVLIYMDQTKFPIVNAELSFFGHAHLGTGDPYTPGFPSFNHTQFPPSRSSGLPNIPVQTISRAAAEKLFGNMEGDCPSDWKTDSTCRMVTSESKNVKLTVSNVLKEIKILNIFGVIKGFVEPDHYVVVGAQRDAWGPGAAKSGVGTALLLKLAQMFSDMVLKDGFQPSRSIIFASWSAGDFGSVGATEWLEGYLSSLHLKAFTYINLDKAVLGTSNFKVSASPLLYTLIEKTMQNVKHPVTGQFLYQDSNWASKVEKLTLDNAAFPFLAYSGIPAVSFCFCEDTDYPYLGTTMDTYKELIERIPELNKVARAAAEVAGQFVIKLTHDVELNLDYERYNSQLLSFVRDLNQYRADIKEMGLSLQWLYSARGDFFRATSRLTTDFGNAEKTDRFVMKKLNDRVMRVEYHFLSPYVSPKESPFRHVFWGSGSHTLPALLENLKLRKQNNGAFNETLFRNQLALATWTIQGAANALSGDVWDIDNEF

[6] = molecular target: T6, HeLa cell extract proteins (Homo sapiens, UniProt P28072)
T6 construct: endogenous in cells; host or cells: HeLa cell extract
T6 sequence (P28072 1-239): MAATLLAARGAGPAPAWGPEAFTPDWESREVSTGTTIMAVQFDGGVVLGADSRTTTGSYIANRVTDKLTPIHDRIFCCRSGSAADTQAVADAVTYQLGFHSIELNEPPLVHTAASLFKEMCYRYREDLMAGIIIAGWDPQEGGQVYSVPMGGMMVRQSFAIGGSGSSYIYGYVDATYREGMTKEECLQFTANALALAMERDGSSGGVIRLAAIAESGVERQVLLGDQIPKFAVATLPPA

[7] = molecular target: T7, HeLa cell extract proteins (Homo sapiens, UniProt P13073)
T7 construct: endogenous in cells; host or cells: HeLa cell extract
T7 sequence (P13073 23-169): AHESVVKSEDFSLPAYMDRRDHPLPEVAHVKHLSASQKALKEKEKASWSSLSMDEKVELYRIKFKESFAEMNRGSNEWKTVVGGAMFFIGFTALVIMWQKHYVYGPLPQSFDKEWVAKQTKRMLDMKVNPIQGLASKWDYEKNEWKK

[8] = molecular target: T8, HeLa cell extract proteins (Homo sapiens, UniProt P63208)
T8 construct: endogenous in cells; host or cells: HeLa cell extract
T8 sequence (P63208 whole entry): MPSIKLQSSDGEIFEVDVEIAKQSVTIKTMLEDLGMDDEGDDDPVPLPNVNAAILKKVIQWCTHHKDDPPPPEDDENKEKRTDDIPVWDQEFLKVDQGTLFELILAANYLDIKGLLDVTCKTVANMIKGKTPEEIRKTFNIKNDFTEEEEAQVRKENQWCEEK

[9] = molecular target: T9, HeLa cell extract proteins (Homo sapiens, UniProt Q99436)
T9 construct: endogenous in cells; host or cells: HeLa cell extract
T9 sequence (Q99436 44-277): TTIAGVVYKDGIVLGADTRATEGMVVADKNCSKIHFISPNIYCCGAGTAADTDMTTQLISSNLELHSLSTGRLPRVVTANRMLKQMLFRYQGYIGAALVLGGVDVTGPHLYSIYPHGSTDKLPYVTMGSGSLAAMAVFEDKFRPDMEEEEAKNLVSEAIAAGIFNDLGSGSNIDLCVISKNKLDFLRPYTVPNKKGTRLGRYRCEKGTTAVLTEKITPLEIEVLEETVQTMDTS

[10] = molecular target: T10, HeLa cell extract proteins (Homo sapiens, UniProt Q9NX63)
T10 construct: endogenous in cells; host or cells: HeLa cell extract
T10 sequence (Q9NX63 1-227): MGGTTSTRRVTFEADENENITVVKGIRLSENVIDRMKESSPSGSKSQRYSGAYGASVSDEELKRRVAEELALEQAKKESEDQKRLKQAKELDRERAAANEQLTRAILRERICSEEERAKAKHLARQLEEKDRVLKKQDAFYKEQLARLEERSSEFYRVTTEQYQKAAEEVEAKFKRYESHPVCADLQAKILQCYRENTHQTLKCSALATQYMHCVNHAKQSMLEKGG

[11] = molecular target: T11, HeLa cell extract proteins (Homo sapiens, UniProt P61106)
T11 construct: endogenous in cells; host or cells: HeLa cell extract
T11 sequence (P61106 whole entry): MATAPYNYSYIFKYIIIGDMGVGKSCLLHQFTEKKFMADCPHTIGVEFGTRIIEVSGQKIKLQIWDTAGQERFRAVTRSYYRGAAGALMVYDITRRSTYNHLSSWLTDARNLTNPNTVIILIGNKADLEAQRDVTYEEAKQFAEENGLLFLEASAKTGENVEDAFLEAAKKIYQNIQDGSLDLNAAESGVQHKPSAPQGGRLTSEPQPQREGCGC

[12] = molecular target: T12, HeLa cell extract proteins (Homo sapiens, UniProt P12270)
T12 construct: endogenous in cells; host or cells: HeLa cell extract
T12 sequence (P12270 whole entry): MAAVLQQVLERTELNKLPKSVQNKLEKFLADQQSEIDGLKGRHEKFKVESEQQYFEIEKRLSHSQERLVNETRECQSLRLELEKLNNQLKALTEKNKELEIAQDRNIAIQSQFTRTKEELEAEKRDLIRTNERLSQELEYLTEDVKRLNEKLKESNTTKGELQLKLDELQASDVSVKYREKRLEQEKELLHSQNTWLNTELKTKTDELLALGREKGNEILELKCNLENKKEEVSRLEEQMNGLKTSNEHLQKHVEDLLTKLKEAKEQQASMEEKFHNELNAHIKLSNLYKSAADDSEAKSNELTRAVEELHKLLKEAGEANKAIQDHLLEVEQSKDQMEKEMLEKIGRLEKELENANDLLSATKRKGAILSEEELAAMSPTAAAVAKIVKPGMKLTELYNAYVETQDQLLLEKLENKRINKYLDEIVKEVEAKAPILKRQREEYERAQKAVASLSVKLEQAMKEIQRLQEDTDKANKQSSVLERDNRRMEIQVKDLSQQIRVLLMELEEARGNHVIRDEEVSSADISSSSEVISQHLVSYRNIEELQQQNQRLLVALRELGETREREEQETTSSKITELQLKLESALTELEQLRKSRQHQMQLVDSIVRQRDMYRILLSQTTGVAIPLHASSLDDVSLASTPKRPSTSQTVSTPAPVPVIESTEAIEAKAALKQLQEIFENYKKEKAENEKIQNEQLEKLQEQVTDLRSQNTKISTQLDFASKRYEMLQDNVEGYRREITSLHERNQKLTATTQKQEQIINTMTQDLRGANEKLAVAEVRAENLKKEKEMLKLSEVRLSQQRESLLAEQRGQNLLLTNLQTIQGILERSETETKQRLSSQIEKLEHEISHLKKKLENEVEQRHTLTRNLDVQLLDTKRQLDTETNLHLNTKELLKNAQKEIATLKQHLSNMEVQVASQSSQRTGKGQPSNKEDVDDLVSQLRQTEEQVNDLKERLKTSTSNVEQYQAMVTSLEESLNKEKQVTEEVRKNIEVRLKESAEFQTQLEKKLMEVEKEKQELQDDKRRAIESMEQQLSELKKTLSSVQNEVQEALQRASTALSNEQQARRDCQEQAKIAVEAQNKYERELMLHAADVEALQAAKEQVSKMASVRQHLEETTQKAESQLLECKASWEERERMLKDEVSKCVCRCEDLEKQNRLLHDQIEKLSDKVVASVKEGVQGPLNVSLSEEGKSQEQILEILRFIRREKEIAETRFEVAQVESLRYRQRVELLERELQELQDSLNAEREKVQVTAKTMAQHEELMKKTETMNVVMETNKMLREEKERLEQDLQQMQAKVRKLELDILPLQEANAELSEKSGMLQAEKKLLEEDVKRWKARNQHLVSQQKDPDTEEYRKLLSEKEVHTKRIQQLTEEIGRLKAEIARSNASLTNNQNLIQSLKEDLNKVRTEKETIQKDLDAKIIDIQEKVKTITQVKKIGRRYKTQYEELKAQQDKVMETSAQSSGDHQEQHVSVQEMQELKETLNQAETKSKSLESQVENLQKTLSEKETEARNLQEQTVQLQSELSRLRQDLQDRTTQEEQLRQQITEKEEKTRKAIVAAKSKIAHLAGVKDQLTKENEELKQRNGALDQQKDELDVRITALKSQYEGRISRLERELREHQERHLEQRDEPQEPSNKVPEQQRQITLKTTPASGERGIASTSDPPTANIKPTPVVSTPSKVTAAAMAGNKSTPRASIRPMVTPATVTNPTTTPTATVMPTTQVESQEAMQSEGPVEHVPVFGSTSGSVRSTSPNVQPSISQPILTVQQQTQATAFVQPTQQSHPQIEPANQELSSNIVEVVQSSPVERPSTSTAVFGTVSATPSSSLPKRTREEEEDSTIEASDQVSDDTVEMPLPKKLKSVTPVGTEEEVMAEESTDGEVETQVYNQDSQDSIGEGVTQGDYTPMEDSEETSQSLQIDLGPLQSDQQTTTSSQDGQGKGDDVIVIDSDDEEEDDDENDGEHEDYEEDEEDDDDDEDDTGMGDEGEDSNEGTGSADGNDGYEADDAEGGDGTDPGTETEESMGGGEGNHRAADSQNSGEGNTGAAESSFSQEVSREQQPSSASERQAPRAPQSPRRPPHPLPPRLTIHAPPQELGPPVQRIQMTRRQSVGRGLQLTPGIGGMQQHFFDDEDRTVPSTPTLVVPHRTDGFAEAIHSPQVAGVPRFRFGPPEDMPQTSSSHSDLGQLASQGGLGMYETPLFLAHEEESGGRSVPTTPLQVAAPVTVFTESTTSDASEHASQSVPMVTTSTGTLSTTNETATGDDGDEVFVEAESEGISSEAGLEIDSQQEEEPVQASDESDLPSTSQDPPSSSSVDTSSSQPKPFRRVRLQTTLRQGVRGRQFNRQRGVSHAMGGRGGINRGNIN

[13] = HeLa, protein PSMB7 ([…] BETA TYPE 7 PRECURSOR)

| SMILES | fold changes relative to vehicle control ([1]; HeLa, captured protein FUBP1) | fold changes relative to vehicle control ([2]; HeLa, captured protein EIF3I) | fold changes relative to vehicle control ([3]; HeLa, protein DARS) | fold changes relative to vehicle control ([4]; HeLa, captured protein PSMG1) | fold changes relative to vehicle control ([5]; HeLa, protein TFRC) | fold changes relative to vehicle control ([6]; HeLa, protein PSMB6) | fold changes relative to vehicle control ([7]; HeLa, protein COX4I1) | fold changes relative to vehicle control ([8]; HeLa, captured protein SKP1) | fold changes relative to vehicle control [9, 13] | fold changes relative to vehicle control ([10]; HeLa, protein CHCHD3) | fold changes relative to vehicle control ([11]; HeLa, protein RAB14) | fold changes relative to vehicle control ([12]; HeLa, captured protein TPR) | fold changes relative to vehicle control ([1]; protein FUBP1, HeLa) | fold changes relative to vehicle control ([2]; protein EIF3I, HeLa) | fold changes relative to vehicle control ([3]; protein DARS, HeLa) | fold changes relative to vehicle control ([4]; HeLa, protein PSMG1) | fold changes relative to vehicle control ([5]; protein TFRC, HeLa) | fold changes relative to vehicle control ([6]; protein PSMB6, HeLa) | fold changes relative to vehicle control ([8]; captured protein SKP1, HeLa) | fold changes relative to vehicle control ([9]; protein PSMB7, HeLa) | further results |
| --- | --- | --- | --- | --- | --- | --- | --- | --- | --- | --- | --- | --- | --- | --- | --- | --- | --- | --- | --- | --- | --- |
| Nc1nc2c(c(=O)[nH]1)N(C=O)C(CNc1ccc(C(=O)N[C@@H](CCC(=O)O)C(=O)O)cc1)CN2 (stereo partly drawn) [LEU, leucovorin] | 1.09 | 1.06 | 0.94 | 0.9 | 0.94 | 1.01 | 0.9 | 1.09 | 1.19 | 0.92 | 0.95 | 1.35 |  |  |  |  |  |  |  |  |  |
| NCCCNc1ccc(C(=O)NC(CCC(=O)O)C(=O)O)cc1 (stereo not drawn) [compound 7] | 1 | 0.97 | 1.06 | 0.98 | 0.87 | 1.02 | 1.17 | 1.01 | 1.08 | 0.99 | 0.86 | 1.06 |  |  |  |  |  |  |  |  |  |
| CCCCCCOc1cccc(Cc2cnc(N)nc2N)c1 [compound 2] |  |  |  |  |  |  | 1.21 |  |  |  |  |  | 1.48 | 0.91 | 1.15 | 0.91 | 1.96 | 1.36 | 1.21 | 1.28 | fold changes relative to vehicle control ([10]; captured protein CHCHD3, HeLa): 1.08; fold changes relative to vehicle control ([11]; captured protein RAB14, HeLa): 1.22; fold changes relative to vehicle control ([12]; protein TPR, HeLa): 1.44 |
| CCCCCCOc1ccc(Cc2cnc(N)nc2N)cc1 [compound 1] |  |  |  |  |  |  | 1.03 |  |  |  |  |  | 1.24 | 0.96 | 1.02 | 0.9 | 1.26 | 1.31 | 1.04 | 1.17 | fold changes relative to vehicle control ([10]; captured protein CHCHD3, HeLa): 0.93; fold changes relative to vehicle control ([11]; captured protein RAB14, HeLa): 0.89; fold changes relative to vehicle control ([12]; protein TPR, HeLa): 1.19 |
| Nc1nc2cccc(-c3ccccc3)c2n1Cc1ccc(Cl)c(Cl)c1 [compound 3] |  |  |  |  |  |  | 1 |  |  |  |  |  | 1 | 1.02 | 0.93 | 1.03 | 0.99 | 1.09 | 0.87 | 0.99 | fold changes relative to vehicle control ([10]; captured protein CHCHD3, HeLa): 1.02; fold changes relative to vehicle control ([11]; captured protein RAB14, HeLa): 0.82; fold changes relative to vehicle control ([12]; protein TPR, HeLa): 1.2 |
| NCCOCCOCC(=O)Nc1nc2ncc(CNc3ccc(C(=O)NC(CCC(=O)O)C(=O)O)cc3)nc2c(=O)[nH]1 (stereo not drawn) [compound 6] | 1.28 | 0.98 | 0.99 | 0.76 | 1.09 | 1.29 | 1.04 | 0.97 | 2.16 | 1 | 0.97 | 1.51 |  |  |  |  |  |  |  |  |  |
| Nc1nc2[nH]cc(CCc3ccc(C(=O)N[C@@H](CCC(=O)O)C(=O)O)cc3)c2c(=O)[nH]1 [PTX, pemetrexed] |  |  |  |  |  |  |  |  |  |  |  |  |  |  |  |  |  |  |  |  | fold changes relative to vehicle control [1]: 1.17; fold changes relative to vehicle control [2]: 1.06; fold changes relative to vehicle control [3]: 0.98; fold changes relative to vehicle control [4]: 0.81; fold changes relative to vehicle control [5]: 1.01; fold changes relative to vehicle control [6]: 1.1; fold changes relative to vehicle control [7]: 0.98; fold changes relative to vehicle control [8]: 1.13; fold changes relative to vehicle control [9]: 1.6; fold changes relative to vehicle control [10]: 0.98; fold changes relative to vehicle control [11]: 0.95; fold changes relative to vehicle control [12]: 1.21 |
